# Results from patent US20240207292A1, “BORONIC ACID COMPOUNDS, COMPOSITIONS AND METHODS” (Trustees of Tufts College, priority 2021, published 2024).
# Where two headings read alike, the source gives them in different places. Square brackets hold non-standard residues; d marks the D form. Peptide text beside a SMILES is read from it. * marks the point of attachment. X1 = O=C1CN2CCN3CCN(CC(=O)*)CCN(CC2)CC(=O)O[CH2][Lu]([CH2]CO1)[CH2]COC(=O)C3; boroPro = OB(O)[C@@H]1CCCN1*
# Experiments:
# [1] = molecular target: recombinant human fibroblast activation protein (FAP) (Homo sapiens (Human), UniProt Q12884); test: In vitro assay fibroblast activation protein IC50 (Example 21); assay type: biochemical
# [2] = molecular target: recombinant human prolyl oligopeptidase (PREP) (Homo sapiens (Human), UniProt P48147); test: In vitro assay prolyl oligopeptidase IC50 (Example 21); assay type: biochemical
# [3] = molecular target: recombinant human dipeptidyl peptidase IV (DPPIV) (Homo sapiens (Human), UniProt P27487); test: In vitro assay dipeptidyl peptidase IV IC50 (Example 21); assay type: biochemical
# [4] = Solubility in water after lyophilization
# [5] = Degradation in aqueous solution of pH about 3 during HPLC purification and lyophilization; conditions: during HPLC purification and subsequent lyophilization
# [6] = Stability of bortezomib with excipients in water, propyleneglycol (PG) or butylene glycol (BG) at 1 mg/mL, 50° C.; assay type: physicochemical
# Procedure: In Examples 1-3 below, Tables 1, 2 and 3 summarize the effectiveness of sulfur compounds in stabilizing bortezomib such as against oxidation and decomposition reactions. For each of the following Examples 1-3, the following procedures were used: Samples preparation: 100 mg of the API (active pharmaceutical ingredient) was suspended into 100 mL of water or other ratioed solvents, mixed well by using a vortex mixer and sonicator (with gentle warm if necessary) to make a 1 mg/mL of solution A. 10 mg of each excipient was weighed into avial, and 1 mL of solution A was added, mixed well to give the test solution B (10:1 of excipient/API). Took 100 μL of solution B and diluted into 1 mL with solution A to give the test solution C (1:1 of excipient/API). Took 100 μL of solution C and diluted into 1 mL with solution A to give the test solution D (0.1:1 of excipient/API). For solid powderform of Bortezomib with the excipients, method in US 2005/0282742 A1 was adopted. […]
# Aqueous formulations of bortezomib together with a number of sulfur-containing compounds in varying weight ratios were evaluated for stability over time based on purity of Bortezomib in water, propyleneglycol (PG) or butylene glycol (BG) at 1 mg/mL, 50° C.
# [7] = lyophilized powder reconstituted before administration; cited from earlier work
# [8] = test system: HEK-mFAP tumor xenografts; test: Efficacy and survival study, single injection of [^177Lu]-6522; assay type: in vivo, Fox Chase SCID mice
# Procedure: The aim of the study was to assess the therapeutic efficacy of a single injection of [^177Lu]-6522 by evaluation tumor growth delay and median survival.
# [^177Lu]-6522 is provided as described in Example 24 above. The following treatment compositions were prepared: • 1. Vehicle (selected formulation, 100 μL) • 2. Precursor (6522 compound) (80 μL) • 3. [.^77Lu]-6522 15 MBq (80 μL) • 4. [.^77Lu]-6522 30 MBq (80 μL) • 5. [.^77Lu]-6522 60 MBq (80 μL)
# A total of 30 HEK-mFAP tumor-bearing mice were used for the study. […]
# Mouse health checks were performed throughout the study on a weekly basis including body weight measurements. Tumor growth was monitored weekly with caliper measurements (tumor volume=length×width^2×0.5). […]. Mice were housed 5 to a cage with ad libitum access to food and water in 20° C. ambient temperature, 40%-50% humidity, and 12-hour light/12-hour dark cycle.
# The mice were randomized into 5 groups, n=6 mice per group. The treatment compositions (1 through 5 above) were injected IV through the tail vein using a catheter (mounted with a 30 Ga needle). Injected doses were determined using a well counter (Capintec calibration). Tumor growth was monitored weekly with caliper measurements, and the mice were followed for survival.
# [9] = test system: HEK-mFAP tumor xenografts
# physchem = conditions: water
# Chain of recombinant human prolyl oligopeptidase (PREP) (P48147 whole entry): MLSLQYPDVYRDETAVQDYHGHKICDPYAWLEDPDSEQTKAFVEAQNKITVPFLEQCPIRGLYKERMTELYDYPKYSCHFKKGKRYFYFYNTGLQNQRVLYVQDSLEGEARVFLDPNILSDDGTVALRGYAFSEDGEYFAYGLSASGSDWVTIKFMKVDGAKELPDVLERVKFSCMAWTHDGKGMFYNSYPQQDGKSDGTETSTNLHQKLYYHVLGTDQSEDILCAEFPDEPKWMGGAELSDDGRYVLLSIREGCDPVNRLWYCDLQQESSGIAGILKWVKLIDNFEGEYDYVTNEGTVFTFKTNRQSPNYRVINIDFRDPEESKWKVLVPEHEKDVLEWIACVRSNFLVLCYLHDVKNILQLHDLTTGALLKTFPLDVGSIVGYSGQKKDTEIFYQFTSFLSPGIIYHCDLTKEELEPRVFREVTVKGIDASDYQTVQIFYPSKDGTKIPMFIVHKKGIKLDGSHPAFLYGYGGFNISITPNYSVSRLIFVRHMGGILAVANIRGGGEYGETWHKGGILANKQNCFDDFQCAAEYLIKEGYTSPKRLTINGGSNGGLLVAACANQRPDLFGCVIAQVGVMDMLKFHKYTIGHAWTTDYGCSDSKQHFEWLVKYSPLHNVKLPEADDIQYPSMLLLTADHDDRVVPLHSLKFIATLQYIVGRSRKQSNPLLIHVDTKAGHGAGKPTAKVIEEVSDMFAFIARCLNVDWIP
# Chain of recombinant human dipeptidyl peptidase IV (DPPIV) (P27487 whole entry): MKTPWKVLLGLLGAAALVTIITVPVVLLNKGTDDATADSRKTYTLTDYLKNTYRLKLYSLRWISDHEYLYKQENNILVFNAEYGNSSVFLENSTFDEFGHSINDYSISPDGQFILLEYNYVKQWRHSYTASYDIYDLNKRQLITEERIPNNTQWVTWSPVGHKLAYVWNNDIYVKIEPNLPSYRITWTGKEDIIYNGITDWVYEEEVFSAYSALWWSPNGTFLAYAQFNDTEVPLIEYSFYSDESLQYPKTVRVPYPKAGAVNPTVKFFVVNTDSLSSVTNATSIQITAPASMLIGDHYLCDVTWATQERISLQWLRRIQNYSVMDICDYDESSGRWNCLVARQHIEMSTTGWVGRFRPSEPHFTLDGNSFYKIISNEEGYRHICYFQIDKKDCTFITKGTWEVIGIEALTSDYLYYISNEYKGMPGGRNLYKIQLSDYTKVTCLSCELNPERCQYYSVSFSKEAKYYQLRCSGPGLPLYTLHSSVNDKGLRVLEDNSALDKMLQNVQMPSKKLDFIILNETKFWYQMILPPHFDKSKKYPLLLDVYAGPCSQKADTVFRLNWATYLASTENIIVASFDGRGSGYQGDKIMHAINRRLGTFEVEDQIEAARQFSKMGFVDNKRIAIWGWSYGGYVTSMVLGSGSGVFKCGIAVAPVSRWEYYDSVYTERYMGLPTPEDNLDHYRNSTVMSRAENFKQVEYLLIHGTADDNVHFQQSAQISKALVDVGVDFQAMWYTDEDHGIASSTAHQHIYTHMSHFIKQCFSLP
# Chain of recombinant human fibroblast activation protein (FAP) (Q12884 whole entry): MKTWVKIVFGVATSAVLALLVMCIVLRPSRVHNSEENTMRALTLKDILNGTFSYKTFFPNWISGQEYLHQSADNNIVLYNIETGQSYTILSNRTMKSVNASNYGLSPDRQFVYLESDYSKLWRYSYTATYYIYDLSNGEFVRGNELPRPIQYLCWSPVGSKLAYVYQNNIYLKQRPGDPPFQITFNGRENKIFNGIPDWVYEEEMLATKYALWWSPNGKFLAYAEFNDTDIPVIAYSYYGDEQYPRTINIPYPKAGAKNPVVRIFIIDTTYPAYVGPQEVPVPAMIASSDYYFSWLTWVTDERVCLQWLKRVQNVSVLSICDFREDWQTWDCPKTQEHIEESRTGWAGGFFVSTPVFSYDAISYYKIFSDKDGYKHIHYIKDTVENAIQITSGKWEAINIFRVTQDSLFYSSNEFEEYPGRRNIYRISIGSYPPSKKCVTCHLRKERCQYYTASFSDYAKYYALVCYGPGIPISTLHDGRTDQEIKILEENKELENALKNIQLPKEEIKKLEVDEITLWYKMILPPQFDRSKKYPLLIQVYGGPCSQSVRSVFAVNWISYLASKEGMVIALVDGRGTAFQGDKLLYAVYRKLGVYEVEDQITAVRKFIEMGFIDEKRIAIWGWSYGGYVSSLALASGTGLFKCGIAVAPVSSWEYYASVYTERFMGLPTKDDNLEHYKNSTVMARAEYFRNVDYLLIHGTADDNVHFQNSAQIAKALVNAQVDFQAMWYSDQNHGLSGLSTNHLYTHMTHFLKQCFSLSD
smiles,measurement,setting,value
C[C@@H](NC(=O)c1ccc(CNC(=O)CN2CCN3CCN4CCN(CC2)CC(=O)[O][Lu]([O]C(=O)C3)[O]C(=O)C4)cc1)C(=O)N1CCC[C@H]1B(O)O [6555LU],IC50,[1],14 nM
same,IC50,[2],3.4 µM
same,IC50,[3],> 100 µM
same,solubility in water,[4],> 50 mg/mL
same,degradation in aqueous solution,[5],did not observe any sign of degradation
"CC(C)C[C@H](NC(=O)[C@H](Cc1ccccc1)NC(=O)c1cnccn1)B(O)O [Bortezomib, reference compound]",decomposition of bortezomib,[6]; in the absence of N-Acetyl-L-methionine,67%
same,time the reconstituted solution is sufficiently stable,[7],up to 8 hours
"CSCC[C@H](NC(C)=O)C(=O)O [N-Acetyl-L-methionine, N-acetyl-L-methionine]",protection of bortezomib,[6]; with N-Acetyl-L-methionine,essentially complete protection
CC(C)[C@H](NC(=O)CNC(=O)CNC(=O)CN1CCN2CCN3CCN(CC1)CC(=O)O[CH2][Lu]([CH2]COC(=O)C2)[CH2]COC(=O)C3)C(=O)N[C@H](C)C(=O)N1CCC[C@H]1B(O)O [[^177Lu]-6522] (X1-GGV[dA]-boroPro),survival benefit,[8]; 15 and 30 MBq groups,did not translate in a survival benefit
same,tumor growth delay,[8]; 15 and 30 MBq groups,tumor growth delay was observed
same,survival benefit compared to the vehicle or precursor group,[8]; 60 MBq single IV injection,statically significant survival benefit
same,kidneys uptake,"[9]; 4 h p.i., IV",2.35 ± 0.51 % ID/g
same,tumor uptake,"[9]; 4 h p.i., IV, HEK-mFAP tumor-bearing mice",33.04 ± 5.29 % ID/g
same,"Blood uptake, Mean (% ID/g)","[9]; 4 h p.i., IV",0.3063 % ID/g
same,"Blood uptake, Mean (% ID/g)","[9]; 24 h p.i., IV",0.0085 % ID/g
same,"Blood uptake, Mean (% ID/g)","[9]; 48 h p.i., IV",0.0029 % ID/g
same,"Blood uptake, Mean (% ID/g)","[9]; 168 h p.i., IV",0.0015 % ID/g
same,"Bone uptake, Mean (% ID/g)","[9]; 4 h p.i., IV",1.8037 % ID/g
same,"Bone uptake, Mean (% ID/g)","[9]; 24 h p.i., IV",0.2658 % ID/g
same,"Bone uptake, Mean (% ID/g)","[9]; 48 h p.i., IV",0.4106 % ID/g
same,"Bone uptake, Mean (% ID/g)","[9]; 168 h p.i., IV",0.3959 % ID/g
same,"Brain uptake, Mean (% ID/g)","[9]; 4 h p.i., IV",0.0281 % ID/g
same,"Brain uptake, Mean (% ID/g)","[9]; 24 h p.i., IV",0.0036 % ID/g
same,"Brain uptake, Mean (% ID/g)","[9]; 48 h p.i., IV",0.0033 % ID/g
same,"Brain uptake, Mean (% ID/g)","[9]; 168 h p.i., IV",0.0020 % ID/g
same,"Heart uptake, Mean (% ID/g)","[9]; 4 h p.i., IV",0.1528 % ID/g
same,"Heart uptake, Mean (% ID/g)","[9]; 24 h p.i., IV",0.0332 % ID/g
same,"Heart uptake, Mean (% ID/g)","[9]; 48 h p.i., IV",0.0311 % ID/g
same,"Heart uptake, Mean (% ID/g)","[9]; 168 h p.i., IV",0.0256 % ID/g
same,"Kidneys uptake, Mean (% ID/g)","[9]; 4 h p.i., IV",2.3525 % ID/g
same,"Kidneys uptake, Mean (% ID/g)","[9]; 24 h p.i., IV",0.9585 % ID/g
same,"Kidneys uptake, Mean (% ID/g)","[9]; 48 h p.i., IV",0.5318 % ID/g
same,"Kidneys uptake, Mean (% ID/g)","[9]; 168 h p.i., IV",0.1670 % ID/g
same,"Liver uptake, Mean (% ID/g)","[9]; 4 h p.i., IV",0.3774 % ID/g
same,"Liver uptake, Mean (% ID/g)","[9]; 24 h p.i., IV",0.1585 % ID/g
same,"Liver uptake, Mean (% ID/g)","[9]; 48 h p.i., IV",0.1237 % ID/g
same,"Liver uptake, Mean (% ID/g)","[9]; 168 h p.i., IV",0.0725 % ID/g
same,"Lung uptake, Mean (% ID/g)","[9]; 4 h p.i., IV",0.3331 % ID/g
same,"Lung uptake, Mean (% ID/g)","[9]; 24 h p.i., IV",0.0306 % ID/g
same,"Lung uptake, Mean (% ID/g)","[9]; 48 h p.i., IV",0.0312 % ID/g
same,"Lung uptake, Mean (% ID/g)","[9]; 168 h p.i., IV",0.0257 % ID/g
same,"Muscle uptake, Mean (% ID/g)","[9]; 4 h p.i., IV",0.4649 % ID/g
same,"Muscle uptake, Mean (% ID/g)","[9]; 24 h p.i., IV",0.0315 % ID/g
same,"Muscle uptake, Mean (% ID/g)","[9]; 48 h p.i., IV",0.0518 % ID/g
same,"Muscle uptake, Mean (% ID/g)","[9]; 168 h p.i., IV",0.0604 % ID/g
same,"Pancreas uptake, Mean (% ID/g)","[9]; 4 h p.i., IV",0.2167 % ID/g
same,"Pancreas uptake, Mean (% ID/g)","[9]; 24 h p.i., IV",0.0347 % ID/g
same,"Pancreas uptake, Mean (% ID/g)","[9]; 48 h p.i., IV",0.0275 % ID/g
same,"Pancreas uptake, Mean (% ID/g)","[9]; 168 h p.i., IV",0.0197 % ID/g
same,"Skin uptake, Mean (% ID/g)","[9]; 4 h p.i., IV",0.9769 % ID/g
same,"Skin uptake, Mean (% ID/g)","[9]; 24 h p.i., IV",0.1158 % ID/g
same,"Skin uptake, Mean (% ID/g)","[9]; 48 h p.i., IV",0.0906 % ID/g
same,"Skin uptake, Mean (% ID/g)","[9]; 168 h p.i., IV",0.0837 % ID/g
same,"Small intestine uptake, Mean (% ID/g)","[9]; 4 h p.i., IV",0.2091 % ID/g
same,"Small intestine uptake, Mean (% ID/g)","[9]; 24 h p.i., IV",0.0580 % ID/g
same,"Small intestine uptake, Mean (% ID/g)","[9]; 48 h p.i., IV",0.0499 % ID/g
same,"Small intestine uptake, Mean (% ID/g)","[9]; 168 h p.i., IV",0.0277 % ID/g
same,"Spleen uptake, Mean (% ID/g)","[9]; 4 h p.i., IV",0.2587 % ID/g
same,"Spleen uptake, Mean (% ID/g)","[9]; 24 h p.i., IV",0.1418 % ID/g
same,"Spleen uptake, Mean (% ID/g)","[9]; 48 h p.i., IV",0.1340 % ID/g
same,"Spleen uptake, Mean (% ID/g)","[9]; 168 h p.i., IV",0.1437 % ID/g
same,"Stomach uptake, Mean (% ID/g)","[9]; 4 h p.i., IV",0.1706 % ID/g
same,"Stomach uptake, Mean (% ID/g)","[9]; 24 h p.i., IV",0.0528 % ID/g
same,"Stomach uptake, Mean (% ID/g)","[9]; 48 h p.i., IV",0.0331 % ID/g
same,"Stomach uptake, Mean (% ID/g)","[9]; 168 h p.i., IV",0.0210 % ID/g
same,"Tumor uptake, Mean (% ID/g)","[9]; 4 h p.i., IV",33.0435 % ID/g
same,"Tumor uptake, Mean (% ID/g)","[9]; 24 h p.i., IV",12.9944 % ID/g
same,"Tumor uptake, Mean (% ID/g)","[9]; 48 h p.i., IV",7.6749 % ID/g
same,"Tumor uptake, Mean (% ID/g)","[9]; 168 h p.i., IV",3.9910 % ID/g
same,kidneys uptake,"[9]; day 7 p.i., IV",0.17 ± 0.02 % ID/g
same,localization in tumor and normal tissue,[9]; up to 168 h p.i.,high localization in tumor xenografts and low normal tissue uptake
C[C@@H](NC(=O)[C@H]1CC[C@H](CNC(=O)CN2CCN(CC(=O)O)CCN(CC(=O)O)CCN(CC(=O)O)CC2)CC1)C(=O)N1CCC[C@H]1B(O)O [compound 6952],IC50,"[1]; Z-Gly-Pro-AMC, 1.2 nM enzyme",4.7 nM
same,IC50,"[2]; Z-Gly-Pro-AMC, 0.6 nM enzyme",4.6 µM
same,IC50,"[3]; Gly-Pro-AMC, 0.1 nM enzyme",> 100 µM
same,solubility,physchem,> 50 mg/mL
same,degradation in aqueous solution,[5],did not observe any sign of degradation
